Reference: patent US20060069132A1, “Azolecarboxamide herbicides” (priority 2004, published 2006)

Assays:
barnyardgrass = assay: Test A pre-/postemergence herbicide test; type: in vivo, Echinochloa crus-galli; details: for Plant response rating, Barnyardgrass: Postemergence; for Barnyardgrass plant response rating: Preemergence
In short: (§1)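 Sandy loam soil given preemergence directed spray; plants at 2 to 10 cm, one- to two-leaf stage, sprayed to runoff postemergence, compounds in non-phytotoxic solvent with surfactant. Injury rated visually versus untreated controls after about ten greenhouse days, 0 (no effect) to 100 (complete control); dash means not tested.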

velvetleaf = assay: Test A pre-/postemergence herbicide test; type: in vivo, Abutilon theophrasti; details: for Plant response rating, Velvetleaf: Postemergence; for Velvetleaf plant response rating: Preemergence
In short: as §1

cocklebur = assay: Test C pre-/postemergence herbicide test; type: in vivo, Xanthium strumarium; details: for Cocklebur plant response rating: 500 g ai/ha
In short: (§2)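 Preemergence: seeds planted and treated with compound in non-phytotoxic solvent with surfactant; postemergence: plants at 2 to 18 cm (1- to 4-leaf stage) sprayed likewise. Kept in greenhouse 12 to 14 days, then visually rated against controls, 0 (no effect) to 100 (complete control).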

kochia = assay: Test C pre-/postemergence herbicide test; type: in vivo, Kochia scoparia; details: for Kochia plant response rating: 500 g ai/ha
In short: as §2

lambsquarters = assay: Test C pre-/postemergence herbicide test; type: in vivo, Chenopodium album; details: for Lambsquarters plant response rating: 500 g ai/ha
In short: as §2

morningglory = assay: Test C pre-/postemergence herbicide test; type: in vivo, Ipomoea coccinea; set-up: key to Plant response rating, Morningglory: 0 = no effect, 100 = complete control; details: for Morningglory plant response rating: 500 g ai/ha
In short: as §2

common ragweed = assay: Test C pre-/postemergence herbicide test; type: in vivo, Ambrosia elatior; set-up: key to Plant response rating, Ragweed: 0 = no effect, 100 = complete control; details: for Ragweed plant response rating: 500 g ai/ha
In short: as §2

[1] = system: smallflower umbrella sedge; assay: Test C flooded paddy test; type: in vivo, Cyperus difformis; details: for Plant response rating, Sedge, Umbrella: visual rating after 12 to 14 days
ducksalad = assay: Test C flooded paddy test; type: in vivo, Heteranthera limosa; details: for Plant response rating, Ducksalad: visual rating after 12 to 14 days
[2] = 500 g ai/ha, 0 to 100 scale, 0 no effect, 100 complete control
[3] = 2000 g ai/ha, 0 to 100 scale, 0 no effect, 100 complete control
[4] = 500 g ai/ha, visual rating, 0 to 100 scale (0 no effect, 100 complete control)
[5] = 125 g ai/ha, scale 0-100, preemergence
[6] = 250 g ai/ha, scale 0 to 100 (0 no effect, 100 complete control), visual, 12 to 14 days, preemergence
[7] = Postemergence, 125 g ai/ha, scale 0 to 100, 0 no effect, 100 complete control
[8] = Postemergence, 250 g ai/ha, scale 0 to 100, 0 no effect, 100 complete control
[9] = Preemergence, scale 0 to 100, 0 no effect, 100 complete control
[10] = postemergence, 62 g ai/ha, scale 0 to 100
[11] = postemergence, 125 g ai/ha, scale 0 to 100
[12] = 62 g ai/ha, scale 0 to 100 (0 no effect, 100 complete control)
[13] = 125 g ai/ha, scale of 0 to 100, 0 is no effect, 100 is complete control
[14] = 250 g ai/ha, scale 0 to 100 (0 no effect, 100 complete control)
[15] = 500 g ai/ha, scale 0 to 100 (0 no effect, 100 complete control)

C=Cn1nc(C(C)(C)C)cc1C(=O)Nc1cccc(C(=O)N(CC)CC)c1 [Compound 34]
10: Plant response rating, Morningglory (morningglory; [8]) | Plant response rating, Morningglory (morningglory; [11]) | Plant response rating, Morningglory (morningglory; [10])
30: Plant response rating, Velvetleaf (velvetleaf; [3]) | Plant response rating, Ragweed (common ragweed; [11])
55: Barnyardgrass plant response rating (barnyardgrass; [4])
40: Plant response rating, Lambsquarters (lambsquarters; [10]) | Morningglory plant response rating (morningglory; Postemergence, scale 0 to 100) | Ragweed plant response rating (common ragweed; Postemergence, scale 0 to 100) | Plant response rating, Ragweed (common ragweed; [8]) | Ragweed plant response rating (common ragweed; [9])
50: Plant response rating, Cocklebur (cocklebur; [8]) | Sedge, Umbrella plant response rating [1, 12]
15: Ducksalad plant response rating (ducksalad; [12])
70: Cocklebur plant response rating (cocklebur; Postemergence, scale 0 to 100)
75: Plant response rating, Ducksalad (ducksalad; [15])
45: Plant response rating, Barnyardgrass (barnyardgrass; [2])
100: Kochia plant response rating (kochia; [9]) | Plant response rating, Lambsquarters (lambsquarters; [5]) | Plant response rating, Lambsquarters (lambsquarters; [6]) | Lambsquarters plant response rating (lambsquarters; Postemergence, scale 0 to 100) | Plant response rating, Lambsquarters (lambsquarters; [8]) | Lambsquarters plant response rating (lambsquarters; [9]) | Morningglory plant response rating (morningglory; [9])
80: Plant response rating, Barnyardgrass (barnyardgrass; [3]) | Barnyardgrass plant response rating (barnyardgrass; [3]) | Plant response rating, Kochia (kochia; [10]) | Plant response rating, Lambsquarters (lambsquarters; [11]) | Sedge, Umbrella plant response rating [1, 13] | Plant response rating, Sedge, Umbrella [1, 14]
20: Plant response rating, Velvetleaf (velvetleaf; [2]) | Velvetleaf plant response rating (velvetleaf; [4]) | Plant response rating, Cocklebur (cocklebur; [7]) | Plant response rating, Cocklebur (cocklebur; [10]) | Plant response rating, Ragweed (common ragweed; [10])
90: Plant response rating (0 = no effect, 100 = complete control), Kochia (kochia; 62 g ai/ha, preemergence) | Plant response rating, Kochia (kochia; [5]) | Kochia plant response rating (kochia; Postemergence, scale 0 to 100) | Plant response rating, Kochia (kochia; [7]) | Plant response rating, Kochia (kochia; [8]) | Plant response rating (0 = no effect, 100 = complete control), Lambsquarters (lambsquarters; 62 g ai/ha, preemergence) | Plant response rating, Sedge, Umbrella [1, 15]
0: Plant response rating (0 = no effect, 100 = complete control), Cocklebur (cocklebur; 62 g ai/ha, preemergence) | Plant response rating, Cocklebur (cocklebur; [5]) | Plant response rating, Cocklebur (cocklebur; [6]) | Cocklebur plant response rating (cocklebur; [9]) | Plant response rating (0 = no effect, 100 = complete control), Morningglory (morningglory; 62 g ai/ha, preemergence) | Plant response rating, Morningglory (morningglory; [6]) | Plant response rating (0 = no effect, 100 = complete control), Ragweed (common ragweed; 62 g ai/ha, preemergence) | Plant response rating, Ragweed (common ragweed; [6])
25: Velvetleaf plant response rating (velvetleaf; [3]) | Ducksalad plant response rating (ducksalad; [13]) | Plant response rating, Ducksalad (ducksalad; [14])
